Consider 14 compounds from BindingDB's records for doi:10.1016/s0960-894x(01)00019-1 (Glaxowellcome Medicines Research Centre, 2001).

What is called IC50 is the concentration that gives 50% inhibition.

This assay can be described thus: Inhibitory activity against influenza A sialidase (Aichi).
Consider `CCCN(CCC)C(=O)[C@@H]1OC(C(=O)O)=C[C@@H](N)[C@H]1NC(C)=O` [(4R,5R,6R)-5-Acetylamino-4-amino-6-dipropylcarbamoyl-5,6-dihydro-4H-pyran-2-carboxylic acid], for which the IC50 amounted to 140 nM. The compound `CCCN(CCc1ccccc1)C(=O)[C@@H]1OC(C(=O)O)=C[C@@H](O)[C@H]1NC(C)=O` [(4R,5R,6R)-5-Acetylamino-4-hydroxy-6-(phenethyl-propyl-carbamoyl)-5,6-dihydro-4H-pyran-2-carboxylic acid] returned an IC50 of 17 nM. As to `CCCN(CCc1ccccc1)C(=O)[C@@H]1OC(C(=O)O)=C[C@H](N)[C@H]1NC(=O)C1CC1` [(4S,5R,6R)-4-Amino-5-(cyclopropanecarbonyl-amino)-6-(phenethyl-propyl-carbamoyl)-5,6-dihydro-4H-pyran-2-carboxylic acid], half-maximal inhibition (IC50) was put at 50 nM. In turn, `CCCC(=O)N[C@@H]1[C@@H](N)C=C(C(=O)O)O[C@H]1C(=O)N(CCC)CCc1ccccc1` [(4S,5R,6R)-4-Amino-5-butyrylamino-6-(phenethyl-propyl-carbamoyl)-5,6-dihydro-4H-pyran-2-carboxylic acid] displayed an IC50 of 43000 nM. The compound `CCCN(CCc1ccccc1)C(=O)[C@@H]1OC(C(=O)O)=C[C@H](N)[C@H]1NC(=O)C(F)(F)F` [(4S,5R,6R)-4-Amino-6-(phenethyl-propyl-carbamoyl)-5-(2,2,2-trifluoro-acetylamino)-5,6-dihydro-4H-pyran-2-carboxylic acid] registered an IC50 of 3 nM. As to `CCCN(CCc1ccccc1)C(=O)[C@@H]1OC(C(=O)O)=C[C@H](N)[C@H]1NC(=O)CC` [(4S,5R,6R)-4-Amino-6-(phenethyl-propyl-carbamoyl)-5-propionylamino-5,6-dihydro-4H-pyran-2-carboxylic acid], half-maximal inhibition (IC50) was put at 0.7 nM.

Consider `CCCN(CCC)C(=O)[C@@H]1OC(C(=O)O)=C[C@H](N)[C@H]1NC(=O)C(F)(F)F` [(4S,5R,6R)-4-Amino-6-dipropylcarbamoyl-5-(2,2,2-trifluoro-acetylamino)-5,6-dihydro-4H-pyran-2-carboxylic acid], for which half-maximal inhibition (IC50) was put at 0.3 nM.

`CCCN(CCC)C(=O)[C@@H]1OC(C(=O)O)=C[C@H](N)[C@H]1NC(=O)C(C)C` [(4S,5R,6R)-4-Amino-6-dipropylcarbamoyl-5-isobutyrylamino-5,6-dihydro-4H-pyran-2-carboxylic acid] gave an IC50 of 17000 nM. Then `CCCN(CCC)C(=O)[C@@H]1OC(C(=O)O)=C[C@H](N)[C@H]1NS(C)(=O)=O` [(4S,5R,6R)-4-Amino-6-dipropylcarbamoyl-5-methanesulfonylamino-5,6-dihydro-4H-pyran-2-carboxylic acid], with 3000 nM; and `CCCN(CCC)C(=O)[C@@H]1OC(C(=O)O)=C[C@H](N)[C@H]1NC(=O)CC` [(4S,5R,6R)-4-Amino-6-dipropylcarbamoyl-5-propionylamino-5,6-dihydro-4H-pyran-2-carboxylic acid], with 5 nM. `CCCN(CCc1ccccc1)C(=O)[C@@H]1OC(C(=O)O)=C[C@H](O)[C@H]1NC(C)=O` [(4S,5R,6R)-5-Acetylamino-4-hydroxy-6-(phenethyl-propyl-carbamoyl)-5,6-dihydro-4H-pyran-2-carboxylic acid] came in with an IC50 of 7 nM. Then `CCCN(CCC)C(=O)[C@@H]1OC(C(=O)O)=C[C@H](NCC)[C@H]1NC(C)=O` [(4S,5R,6R)-5-Acetylamino-6-dipropylcarbamoyl-4-ethylamino-5,6-dihydro-4H-pyran-2-carboxylic acid], with 420 nM; and `CCCN(CCC)C(=O)[C@@H]1OC(C(=O)O)=C[C@H](NC)[C@H]1NC(C)=O` [(4S,5R,6R)-5-Acetylamino-6-dipropylcarbamoyl-4-methylamino-5,6-dihydro-4H-pyran-2-carboxylic acid], with 240 nM. Take `CCCN(CCc1ccccc1)C(=O)[C@@H]1OC(C(=O)O)=CC[C@H]1NC(C)=O` [(5R,6R)-5-Acetylamino-6-(phenethyl-propyl-carbamoyl)-5,6-dihydro-4H-pyran-2-carboxylic acid]: the IC50 was 7 nM.
